≈ marks a conversion by molar mass, not a printed value.
How the values were obtained:
[1] = cited from earlier work
most fungi = settings: general background statement; cited from earlier work
Fusarium oxysporum f.sp = assay: Minimal inhibitory concentration on agar plates containing natamycin (agar diffusion method); type: cell-based, Fusarium oxysporum f. sp. cubense; settings: spores grown on agar plates with different natamycin concentrations, no visible growth
Method: (§1) The minimal inhibition concentration of these moulds or the minimal effective amount of the antifungal compound was determined using the agar diffusion method, which is well known in the art. Mould spores were grown on agar plates containing different concentrations of natamycin. The concentration of natamycin on which no visible growth could be observed was considered as the minimal inhibitory concentration (MIC) for that particular mould strain.

M. fijensis = assay: as above; type: cell-based, Mycosphaerella fijiensis; settings: Pseudocercospora fijiensis; spores grown on agar plates with different natamycin concentrations; no visible growth
Method: as §1

## C[C@@H]1C/C=C/C=C/C=C/C=C/[C@H](O[C@@H]2O[C@H](C)[C@@H](O)[C@H](N)[C@@H]2O)C[C@@H]2O[C@](O)(C[C@@H](O)C[C@H]3O[C@@H]3/C=C/C(=O)O1)C[C@H](O)[C@H]2C(=O)O [natamycin]
[1]
  solubility in water: 30-50 ppm
Most fungi
  MIC (Minimal Inhibition Concentration) of most fungi: less than 20 ppm
Fusarium oxysporum f.sp
  MIC: 3 to 7 µg/mL (≈ 4.51 to 10.5 µM)
M. fijensis
  MIC: 3 to 7 µg/mL (≈ 4.51 to 10.5 µM)

— patent publication US20070123476A1, “Polyene antibiotic for controlling fungal growth in banana crops” (priority 2004, published 2007)
